Patent US7592329B2, “Crystalline complexes of fluticasone-2-furoate” (Glaxo Group Limited, priority 2003, dated 2009)
“Also recorded” adds a separate entry of the source.

Tests used:
[1] = Pharmacokinetics after intravenous (IV) and oral dosing in rats; type: in vivo, male Wistar Han rats; settings: rat
human hepatocytes = test: In vitro metabolism in human hepatocytes; type: in vitro ADME; settings: 17-β carboxylic acid (X) the only significant metabolite
human lung tissue = test: In vitro human lung tissue affinity experiments; type: in vitro ADME
thymus involution = test: Rat model of thymus involution; type: in vivo; settings: 3 daily IT doses of 100 μg
[2] = Pharmacokinetics after intra-tracheal dry powder dosing in the pig; type: in vivo; settings: for time after dosing up to which quantifiable in plasma: anaesthetised pigs, 1 mg intra-tracheal, LLOQ 10 pg/mL compound (I), 20 pg/mL fluticasone propionate
Experimental: Serial blood samples were taken for up to 8 h following dosing.

rat hepatocytes = test: In vitro metabolism in rat hepatocytes; type: in vitro ADME; settings: 17-β carboxylic acid (X) the only significant metabolite
[3] = Lung absorption (mean absorption time) in man; type: in vivo; settings: average; for time taken for 90% of lung dose to be absorbed: mathematical deconvolution of plasma concentration time data
[4] = Pharmacokinetics after intravenous administration in the anaesthetised pig; type: in vivo; settings: IV mixture of the two compounds at 0.1 mg/kg
Excerpt: The clearance of these two glucocorticoids is similar is this experimental pig model.

[5] = test system: human bronchial epithelial cells; test: Cell transport and accumulation studies using human bronchial epithelial cells; type: in vitro ADME
[6] = molecular target: glucocorticoid receptor (GR) (Homo sapiens, UniProt P04150); test: Transactivation (GR) renilla luciferase reporter assay in A549 cells; type: cell-based; settings: GRE renilla luciferase reporter, read-out: Transactivation (GR) ED50
Excerpt: The glucocorticoid receptor (GR) can function in at least two distinct mechanisms, by upregulating gene expression through the direct binding of GR to specific sequences in gene promotors, and by downregulating gene expression that is being driven by other transcription factors (such as NFκB or AP-1) through their direct interaction with GR.
The first cell line contains the firefly luciferase reporter gene under the control of a synthetic promoter that specifically responds to activation of the transcription factor NFκB when stimulated with TNFα. The second cell line contains the renilla luciferase reporter gene under the control of a synthetic promotor that comprises 3 copies of the consensus glucocorticoid response element, and which responds to direct stimulation by glucocorticoids. Simultaneous measurement of transactivation and transrepression was conducted by mixing the two cell lines in a 1:1 ratio in 96 well plate (40,000 cells per well) and growing overnight at 37° C. Test compounds were dissolved in DMSO, and added to the cells at a final DMSO concentration of 0.7%. After incubation for 1 h 0.5 ng/ml TNFα (R&D Systems) was added and after a further 15 hours at 37° C., the levels of firefly and renilla luciferase were measured using the Packard Firelite kit following the manufacturers' directions. Dose response curves were constructed from which EC50 values were determined.

glucocorticoid receptor = molecular target: T1, glucocorticoid receptor (Homo sapiens, UniProt P04150); test: In vitro functional glucocorticoid assays, metabolite versus parent; type: cell-based
T1 sequence (P04150 1-777): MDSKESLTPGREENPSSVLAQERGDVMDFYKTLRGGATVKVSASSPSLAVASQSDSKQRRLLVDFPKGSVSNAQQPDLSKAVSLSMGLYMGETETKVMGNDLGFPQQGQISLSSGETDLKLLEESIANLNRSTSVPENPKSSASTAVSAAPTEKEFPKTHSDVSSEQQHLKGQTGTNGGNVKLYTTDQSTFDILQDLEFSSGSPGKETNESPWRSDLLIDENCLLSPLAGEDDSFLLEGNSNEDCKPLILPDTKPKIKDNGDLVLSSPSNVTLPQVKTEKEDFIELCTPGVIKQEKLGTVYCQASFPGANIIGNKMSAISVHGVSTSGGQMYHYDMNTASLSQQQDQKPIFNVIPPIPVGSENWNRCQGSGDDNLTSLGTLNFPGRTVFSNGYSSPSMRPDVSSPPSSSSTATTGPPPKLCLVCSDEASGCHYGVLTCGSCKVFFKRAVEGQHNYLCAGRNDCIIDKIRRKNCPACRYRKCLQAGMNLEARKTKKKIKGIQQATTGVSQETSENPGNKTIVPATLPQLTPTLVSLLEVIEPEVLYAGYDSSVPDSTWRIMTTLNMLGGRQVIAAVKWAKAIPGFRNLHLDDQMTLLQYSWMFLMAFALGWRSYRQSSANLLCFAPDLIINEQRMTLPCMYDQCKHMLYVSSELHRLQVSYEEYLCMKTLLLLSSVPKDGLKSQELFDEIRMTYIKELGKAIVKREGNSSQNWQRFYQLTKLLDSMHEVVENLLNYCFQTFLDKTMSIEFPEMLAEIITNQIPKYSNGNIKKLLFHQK
Experimental: Compound (I) undergoes highly efficient hepatic metabolism to yield the 17-β carboxylic acid (X) as the sole major metabolite in rat and human in vitro systems.
Pharmacological activity was assessed in a functional in vitro assay of glucocorticoid agonist activity which is generally predictive of anti-inflammatory or anti-allergic activity in vivo.
The functional assay was based on that described by K. P. Ray et al., Biochem J. (1997), 328, 707-715. A549 cells stably transfected with a reporter gene containing the NF-κB responsive elements from the ELAM gene promoter coupled to sPAP (secreted alkaline phosphatase) were treated with test compounds at appropriate doses for 1 hour at 37° C. The cells were then stimulated with tumour necrosis factor (TNF, 10 ng/ml) for 16 hours, at which time the amount of alkaline phosphatase produced is measured by a standard colourimetric assay. […]
In a variant of the above method, to monitor these functions, two reporter plasmids have been generated and introduced separately into A549 human lung epithelial cells by transfection. […] After incubation for 1 h 0.5 ng/ml TNFα (R&D Systems) was added and after a further 15 hours at 37° C., the levels of firefly and renilla luciferase were measured using the Packard Firelite kit following the manufacturers' directions. Dose response curves were constructed from which EC50 values were determined.

bioavailability ([1]; male, Wistar Han, plasma, oral, 0.1 mg/kg, oral 0.1 mg/kg vs IV 0.1 mg/kg) [%]	plasma clearance (in words) ([1]; in vivo)	affinity for human lung tissue (human lung tissue)	reduction of thymus weight (thymus involution) [%]	time after dosing up to which quantifiable in plasma [2]	mean absorption time (MAT) [3] [h]	time taken for 90% of lung dose to be absorbed [3] [h]	clearance compared with fluticasone propionate [4]	accumulation within the cell layer compared with fluticasone propionate [5]	flux across the cell layer compared with fluticasone propionate [5]	Structure (SMILES)	manner of metabolism (human hepatocytes)	systemic exposure compared with fluticasone propionate ([2]; dry powder delivery to the lungs of anaesthetised pigs)	manner of metabolism (rat hepatocytes)	EC50 [6] [nM]	fold less active than the parent compound (glucocorticoid receptor) [fold]
0.9	approaching hepatic blood flow	significantly higher affinity	67	up to 2 hours	12	21	similar	greater accumulation	reduced flux	C[C@@H]1CC2C3C[C@H](F)C4=CC(=O)C=C[C@]4(C)[C@@]3(F)[C@@H](O)C[C@]2(C)[C@@]1(OC(=O)c1ccco1)C(=O)SCF (stereo partly drawn) [Compound of Formula (I), 6α,9α-Difluoro-17α-[(2-furanylcarbonyl)oxy]-11β-hydroxy-16α-methyl-3-oxo-androsta-1,4-diene-17β-carbothioic acid S-fluoromethyl ester]	metabolised in an identical manner to fluticasone propionate	markedly reduced systemic exposure; also recorded: significantly lower exposure	metabolised in an identical manner to fluticasone propionate		
			78	up to 8 hours	2.1	11				CCC(=O)O[C@]1(C(=O)SCF)[C@H](C)C[C@H]2[C@@H]3C[C@H](F)C4=CC(=O)C=C[C@]4(C)[C@@]3(F)[C@@H](O)C[C@@]21C [Fluticasone propionate, 6α,9α-Difluoro-17α-(1-oxopropoxy)-11β-hydroxy-16α-methyl-3-oxo-androsta-1,4-diene-17β-carbothioic acid S-fluoromethyl ester, reference compound]					
										C[C@@H]1CC2C3C[C@H](F)C4=CC(=O)C=C[C@]4(C)[C@@]3(F)[C@@H](O)C[C@]2(C)[C@@]1(OC(=O)c1ccco1)C(=O)O (stereo partly shown) [Metabolite (X)]				> 250	> 1000
